Reference: ChEMBL document CHEMBL1201862, “PubChem BioAssay data set” (2004)
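Following 48 hours of exposure in 96-well plates, responses at five concentrations were used to interpolate endpoints linearly. GI50 = concentration required for 50% inhibition of growth.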 Calls of active or inactive are those of the source. Rule as the data show it: active = GI50 up to about 1.1 µM and inactive = higher. Where a SMILES comes first, the peptide text is derived from it.

What was measured:
Test in all cases: NCI tumour cell line growth inhibition, 48 h
SR = test system: SR
OVCAR-4 = test system: OVCAR-4
HT-29 = test system: HT-29
SF-539 = test system: SF-539
Hs-578T = test system: Hs-578T
SF-295 = test system: SF-295
NCI-H460 = test system: NCI-H460
PC-3 = test system: PC-3
HOP-92 = test system: HOP-92
EKVX = test system: EKVX
NCI-H226 = test system: NCI-H226
NCI-H23 = test system: NCI-H23
UACC-62 = test system: UACC-62
SNB-75 = test system: SNB-75
SNB-19 = test system: SNB-19
M14 = test system: M14
IGROV-1 = test system: IGROV-1

Row | SMILES | GI50 (SR) | GI50 (OVCAR-4) | GI50 (HT-29) | GI50 (SF-539) | GI50 (Hs-578T) | GI50 (SF-295) | GI50 (NCI-H460) | GI50 (PC-3) | GI50 (HOP-92) | GI50 (EKVX) | GI50 (NCI-H226) | GI50 (NCI-H23) | GI50 (UACC-62) | GI50 (SNB-75) | GI50 (SNB-19) | GI50 (M14) | GI50 (IGROV-1)
1 | O=C1NC(=O)C23C(=O)NC(=O)C12C1C=CC3CC1 (configuration not stated) | > 10 µM (inactive) | > 10 µM (inactive) | > 10 µM (inactive) | > 10 µM (inactive) | > 10 µM (inactive) | > 10 µM (inactive) | > 10 µM (inactive) | > 10 µM (inactive) | > 10 µM (inactive) | > 10 µM (inactive) | > 10 µM (inactive) | > 10 µM (inactive) | > 10 µM (inactive) | > 10 µM (inactive) | > 10 µM (inactive) | > 10 µM (inactive) | > 10 µM (inactive)
2 | COc1ccc(/C(=N/N=c2\[nH]c3ccccc3n2Cc2ccccc2)C(=O)O)cc1 | 3.29 µM (inactive) | 7.76 µM (inactive) | 22 µM (inactive) | 23.7 µM (inactive) | 31.7 µM (inactive) | 6.81 µM (inactive) | 4.8 µM (inactive) | 7.41 µM (inactive) | 11.7 µM (inactive) | 31.3 µM (inactive) | 20.2 µM (inactive) | 14.1 µM (inactive) | 8.36 µM (inactive) | 18.3 µM (inactive) | 25.7 µM (inactive) | 14.5 µM (inactive) | 6.92 µM (inactive)
3 | Cc1cnc2c(c1)C(=O)C1=C(C2=O)C2OC(=O)CC2OC1(C)C (configuration not stated) | 0.0389 µM (active) | 0.159 µM (active) | 0.0588 µM (active) | 0.237 µM (active) | 0.301 µM (active) | 1.25 µM (inactive) | 0.76 µM (active) | 0.16 µM (active) | 0.121 µM (active) | 0.209 µM (active) | 0.979 µM (active) | 0.321 µM (active) | 0.179 µM (active) | 1.69 µM (inactive) | 1.16 µM (inactive) | 0.254 µM (active) | 0.179 µM (active)
4 | O=C(NCCc1ccccc1)c1cc(/C=C/c2cc(O)ccc2O)ccc1O | 3.01 µM (inactive) | 2.27 µM (inactive) | 18.3 µM (inactive) | 2.38 µM (inactive) | 5.2 µM (inactive) | 15.9 µM (inactive) | 9.44 µM (inactive) | 3.56 µM (inactive) | 1.87 µM (inactive) | 2.91 µM (inactive) | 9.66 µM (inactive) | 4.95 µM (inactive) | 2.03 µM (inactive) | 5.57 µM (inactive) | 6.71 µM (inactive) | 5.56 µM (inactive) | 3.03 µM (inactive)
5 | C=C1C(=O)O[C@H]2[C@@H](O)[C@H](C)CCC/C(C)=C/CC[C@@]3(C)O[C@@H]3C[C@@H]12 | 1.88 µM (inactive) | 7.16 µM (inactive) | 5.45 µM (inactive) | 2.59 µM (inactive) | 14.7 µM (inactive) | 18.1 µM (inactive) | 5.89 µM (inactive) | 13.7 µM (inactive) | 2.59 µM (inactive) | 4.22 µM (inactive) | 1.53 µM (inactive) | 8.75 µM (inactive) | 9.79 µM (inactive) | 15.1 µM (inactive) | 16.7 µM (inactive) | 3.94 µM (inactive) | 3.5 µM (inactive)
6 | CCCCNC(=S)N/N=C/c1cccc(C)n1 | 19.5 µM (inactive) | 55.1 µM (inactive) | > 10 µM (inactive) | 29.7 µM (inactive) | > 100 µM (inactive) | 33.2 µM (inactive) | 32.4 µM (inactive) | 47 µM (inactive) | 24.2 µM (inactive) | 24.8 µM (inactive) | 27.8 µM (inactive) | 59.3 µM (inactive) | 25.6 µM (inactive) | 67.6 µM (inactive) | 39.3 µM (inactive) | 25.1 µM (inactive) | 58.3 µM (inactive)
7 | COc1ccc(NC(=O)C(=O)Cc2nc3ccc(C(=O)c4ccccc4)cc3nc2O)c([N+](=O)[O-])c1 | 18.3 µM (inactive) | 43.7 µM (inactive) | 14.9 µM (inactive) | 33 µM (inactive) | > 100 µM (inactive) | 31.8 µM (inactive) | 32.1 µM (inactive) | 18.5 µM (inactive) | 10.8 µM (inactive) | 28.3 µM (inactive) | 11.5 µM (inactive) | 20.5 µM (inactive) | 21.3 µM (inactive) | 17.7 µM (inactive) | 62.8 µM (inactive) | 35.6 µM (inactive) | 17.6 µM (inactive)
8 | C[C@]12CC[C@H](O)CC1=CC[C@@H]1C2CC[C@]2(C)c3n[nH]nc3CC12 (some centres not stated) | 25.9 µM (inactive) | > 100 µM (inactive) | > 100 µM (inactive) | > 100 µM (inactive) | 38.6 µM (inactive) | > 100 µM (inactive) | > 100 µM (inactive) | > 100 µM (inactive) | > 100 µM (inactive) | 52.7 µM (inactive) | > 100 µM (inactive) | > 100 µM (inactive) | 96.6 µM (inactive) | 82 µM (inactive) | > 100 µM (inactive) | > 100 µM (inactive) | > 100 µM (inactive)
9 | CC(=O)NC(CS)C(=O)NC(CO)C(=O)NC(CO)C(=O)NC(Cc1c[nH]c2ccccc12)C(=O)N1CCCC1C(=O)NC(CO)C(=O)NC(Cc1c[nH]c2ccccc12)C(=O)NC(Cc1c[nH]cn1)C(=O)NC(CO)C(=O)NC(Cc1c[nH]c2ccccc12)C(=O)NCC(=O)NCC(=O)NC(CC(=O)O)C(=O)NC(CCC(N)=O)C(=O)NC(CCCCN)C(=O)NC(Cc1ccccc1)C(=O)NC(CCCNC(=N)N)C(=O)NC(CCCCN)C(N)=O (configuration not stated) (Ac-CSSWPSWHSWGGDQKFRK-NH2; configuration not given here) | > 25 µM (inactive) | > 25 µM (inactive) | > 25 µM (inactive) | > 25 µM (inactive) | > 25 µM (inactive) | > 25 µM (inactive) | > 25 µM (inactive) | > 25 µM (inactive) | > 25 µM (inactive) | > 25 µM (inactive) | > 25 µM (inactive) | > 25 µM (inactive) | > 25 µM (inactive) | > 25 µM (inactive) | > 25 µM (inactive) | > 25 µM (inactive) | > 25 µM (inactive)
10 | COc1ccc2c(c1)CC[C@@H]1C2CC[C@]2(C)C(=O)N(C)C(=O)CC12 (some centres not stated) | 13.9 µM (inactive) | > 100 µM (inactive) | > 100 µM (inactive) | > 100 µM (inactive) | 42 µM (inactive) | 62.7 µM (inactive) | > 100 µM (inactive) | > 100 µM (inactive) | > 100 µM (inactive) | > 100 µM (inactive) | > 100 µM (inactive) | > 100 µM (inactive) | > 100 µM (inactive) | 52.5 µM (inactive) | > 100 µM (inactive) | > 100 µM (inactive) | > 100 µM (inactive)
11 | Cn1c2ccccc2c2c3c(=O)[nH][nH]c(=O)c3c3c4ccccc4n(C)c3c21 | < 0.01 µM (active) | > 64.3 µM (inactive) | > 100 µM (inactive) | > 100 µM (inactive) | > 100 µM (inactive) | > 100 µM (inactive) | 16.9 µM (inactive) | > 100 µM (inactive) | > 100 µM (inactive) | > 100 µM (inactive) | > 100 µM (inactive) | 12.5 µM (inactive) | > 100 µM (inactive) | > 100 µM (inactive) | > 100 µM (inactive) | > 84.5 µM (inactive) | > 100 µM (inactive)
12 | Nc1ccccc1OCCCOc1ccccc1N | 88.5 µM (inactive) | > 100 µM (inactive) | > 100 µM (inactive) | > 100 µM (inactive) | > 100 µM (inactive) | > 100 µM (inactive) | > 100 µM (inactive) | > 100 µM (inactive) | > 100 µM (inactive) | > 100 µM (inactive) | > 100 µM (inactive) | > 100 µM (inactive) | > 100 µM (inactive) | > 100 µM (inactive) | > 100 µM (inactive) | > 100 µM (inactive) | > 100 µM (inactive)
13 | COCCOCc1nc(C#N)c(N)o1 | > 100 µM (inactive) | > 100 µM (inactive) | > 100 µM (inactive) | > 100 µM (inactive) | > 100 µM (inactive) | > 100 µM (inactive) | > 100 µM (inactive) | > 100 µM (inactive) | > 100 µM (inactive) | > 100 µM (inactive) | > 100 µM (inactive) | > 100 µM (inactive) | > 100 µM (inactive) | > 100 µM (inactive) | > 100 µM (inactive) | > 100 µM (inactive) | > 100 µM (inactive)
14 | Cc1cc2nc3[nH]c4c(Cl)cc(Cl)cc4c3nc2cc1C | 96.8 µM (inactive) | > 100 µM (inactive) | > 100 µM (inactive) | 36.5 µM (inactive) | > 100 µM (inactive) | > 100 µM (inactive) | > 100 µM (inactive) | > 100 µM (inactive) | > 100 µM (inactive) | > 100 µM (inactive) | > 100 µM (inactive) | > 100 µM (inactive) | 84.7 µM (inactive) | 9.12 µM (inactive) | > 100 µM (inactive) | > 100 µM (inactive) | > 100 µM (inactive)
15 | COc1cnc2cc(C(=O)O)c3ccccc3c2c1 | > 100 µM (inactive) | > 100 µM (inactive) | > 100 µM (inactive) | > 100 µM (inactive) | > 100 µM (inactive) | > 100 µM (inactive) | > 100 µM (inactive) | > 100 µM (inactive) | > 100 µM (inactive) | > 100 µM (inactive) | > 100 µM (inactive) | > 100 µM (inactive) | > 100 µM (inactive) | 58.3 µM (inactive) | > 100 µM (inactive) | 92.5 µM (inactive) | > 100 µM (inactive)
16 | CS(=O)(=O)N1CC(CCl)c2ccc(NO)cc21 (configuration not stated) | 2.3 µM (inactive) | 17.5 µM (inactive) | 14.3 µM (inactive) | 10.2 µM (inactive) | 23.1 µM (inactive) | 20 µM (inactive) | 14.9 µM (inactive) | 12 µM (inactive) | 14.4 µM (inactive) | 16.7 µM (inactive) | 30 µM (inactive) | 5.06 µM (inactive) | 13.6 µM (inactive) | 1.77 µM (inactive) | 22.5 µM (inactive) | 16.2 µM (inactive) | 13.6 µM (inactive)
